Laboratory results: patent US20230365570A1, “COMPOUNDS WITH GLUCOCORTICOID SPARING EFFECTS AND USES THEREOF” (The Regents of the University of California, priority 2020, published 2023)

What was measured:
THP-1 cells [1] = test: IL-1ß stimulated TNF release by THP-1 cells; assay type: cell-based, human
Description: (§1) THP-1 cells (10^5 cells/200 μL/well) and RA FLS (104/200 μL/well) were plated in 96 well plates and pre-treated with compound or vehicle for 1 h and then stimulated with either LPS (10 ng/ml), 1L-1ß (2 ng/ml) or TNF (2 ng/ml for THP-1 and 1 ng/ml for RA FLS). After 18 h of incubation, supernatants were collected and the levels of cytokines and chemokines in the culture supernatants were measured by ELISA according to the manufacturer's protocols (R&D systems, Minneapolis, MN).
(§2) The lead compounds belonging to chemotypes 1, 3, and 5 were tested for potency in suppressing chemokine and cytokine production by THP-1 cells in the presence of different inflammatory stimuli. The production of CXCL8 induced by either LPS (10 ng/ml), IL-1ß (2 ng/ml), or TNF (2 ng/ml) and TNF induced by IL-1ß (2 ng/ml) was assessed using serially diluted compounds. The compounds except 1-2 reduced the level of CXCL8 production stimulated by LPS in a dose dependent manner (FIG. 3A). However, the compounds from chemotype 5 enhanced CXCL8 release by THP-1 cells when stimulated with IL-111, or TNF (FIGS. 3B, C). […] The 1Cs0 for 1-1, 1-2 and 3-1 for IL-1ß stimulated CXCL8 release included 400, 1770, and 2020 nM, respectively, (FIG. 3C).

THP-1 cells [2] = test: TNF stimulated CXCL8 release by THP-1 cells; assay type: cell-based, human; settings: TNF 2 ng/ml, overnight (FIG. 3B)
Description: as §1, §2

THP-1 cells [3] = test: CXCL8 production by LPS stimulated THP-1 cells (ELISA); assay type: cell-based, human; settings: LPS 10 ng/ml, purchased compound, mean LPS CXCL8 201.1 pg/ml = 100%
Description: as §1
The 122 hit compounds underwent additional screening and were evaluated for their effects on cell viability and the ability to suppress production of an NF-κB-associated chemokine, CXCL8 (IL-8) by LPS stimulated THP-1 cells (FIG. 2D). The cells were also examined for viability after 24 h of stimulation by MTT assay (FIG. 2E).
Three of the eleven chemotypes were excluded based on the potential for them to be Michael acceptors, In many cases α,β-unsaturated carbonyls such as those found in these chemotypes can form adducts with thiols, especially under physiological conditions (pH=6-8), reducing the in vivo efficacy. Also, Michael acceptors are often […] IKKß inhibitors and thereby inhibit NF-KB response. […]

THP-1 cells [4] = test: IL-1ß stimulated CXCL8 release by THP-1 cells; assay type: cell-based, human; settings: IL-1ß 2 ng/ml, overnight (FIG. 3C)
Description: as §1, §2

THP-1 cells [5] = test: Cell viability by MTT assay in THP-1 cells; assay type: cell-based, human; settings: for Cellular viability (% Viability compared to Veh): 10 uM (FIG. 8B)
Description: Two types of tetrazolium were used for viability assays. […] After 18 h of incubation, 0.5 mg/ml 3[4,5-dimethylthiazol-2-yl]-2,5-dipheyl tetrazolium bromide (MTT; Thermo Fisher Scientific) in assay media was added to each well at a final concentration of (0.5 mg/ml) and further incubated for 4-6 h. The absorbances at 570 and 650 nm were measured by a Tecan Infinite M200 plate reader, For RA FLS, the cells were dispersed into 96-well flat bottom plates (104/200 μL/well) and incubated overnight. The next day, RA FLS were treated with 5 μM of each compound for 18 h of incubation. Ten μl of WST-8 [2-(2-methoxy-4-nitrophenyl)-3-(4-nitrophenyl)-5-(2,4-disulfophewnyl)-2H-tetrazolium, monosodium salt] solution was added to each well and the cells were further incubated for 2-4 h. The absorbance was measured at 450 nm with Bio-Rad iMark plate reader (Bio-Rad Laboratories Inc., Hercules, CA, Unites States).

THP-1 cells [6] = test: Combination and synergy of compounds with DEX, CXCL8 release by TNF stimulated THP-1 cells; assay type: cell-based, human
Description: Drug synergy analysis was performed using lsobologram plots which were calculated according to reported procedures to compute IC50 and determine synergism. IC50 is computed from the median effect equation. Synergism analysis is carried out using the Combination index (Cl)-isobol method. Data analysis was performed using the CompuSyn software available on combisyn.com, Detailed methodology was used as described in a prior report. Briefly, the median-effect equation is computed to obtain the linear regression for the effect of inhibitors DEX and 1−1 as Fa/Fu=(D/D50)^m, where D is the dose; Fa and Fu is the fraction of the inhibition and uninhibited response by the dose D (Fa+Fu=1); D50 is the dose producing the median effect (i.e, IC50). The constant m determines the shape of the dose-effect curve. The median-effect equation in logarithmic form is log (Fa/Fu) =m log(D)−m log (D50) which essentially represents a linear relationship between log(Fa/Fu) and log(D). […] This is followed by Cl-isobol method to quantitatively assess the synergism between these inhibitor drugs. A combination index (Cl) is estimated from dose-effect data of single and combined drug treatments. A value of C; less than one indicates synergism; Cl=1 indicates additive effect; and Cl>1 indicates antagonism. Drug interaction (synergism or antagonism) is more pronounced the further a CI value is from 1. […] The doses Dx1 and Dx2 were estimated from the median effect equation above for single drug treatments. From the median effect equation, the estimated dose (i.e., D) necessary to produce the inhibition (i.e., Fa, Fu) obtained by the combination was calculated. The results are presented as a normalized isobolograrn. A point in the isobologram represents the effect of a drug(s) treatment.
To assess whether the remaining candidate compounds would provide additional benefit to a low dose of glucocorticoid, THP-1 cells were stimulated with TNF and treated them with serially diluted compounds and 100 nM DEX (FIGS. 4A-C). […] Next whether there was an additive or synergistic effect with these three compounds and DEX was formally addressed. […] The four CXCL8 levels below the maximum plateau were used to calculate an isobologram (FIG. 5D).

[7] = tested on: murine bone marrow-derived dendritic cells (BMDCs); test: TNF-α and IP-10 induction by TLR and STING ligands in murine BMDCs; assay type: cell-based, mouse; settings: BMDCs from WT and Tmem173-/- mice (FIGS. 9A-D)
Description: (§3) FIGS. 9A-9F show the partial STING dependent activity of nitrofuranylamide compounds 4, 5 and 6 and inhibition of TLR pathways.
(§4) Since the synthesized compounds were identified via assays in human cells, there was interest in verifying the potency of these compounds in murine cells. Compounds were incubated with murine bone marrow-derived dendritic cells (BM DCs) obtained from wild-type (WT) mice and STING null (Tmem173^−/−) mice as STING had been reported as the target of other nitrofuranylamides. […] To compare these compounds, the IC50 values of these compounds were assessed in dose titration studies.

mBMDCs = test: IFNβ induced by DMXAA in mBMDCs; assay type: cell-based, mouse; settings: for IFNβ induced by DMXAA: mBMDCs (FIG. 9F)
Description: as §3, §4

mice = test: K/BxN serum induced arthritis and allodynia in mice; assay type: in vivo, mouse
Description: FIGS. 10A-10D show the in vivo activity of compound 5 in WT and STING knock-out Tmem173^−/− mice. Mice were induced with K/B×N serum on days 0 and 2 to have arthritis and related pain. Compound 5 was administered (750 nmol) IP BID on days 0-5. […] (B) These effects of compound 5 are not seen in similarly treated Tmem173−/− mice. Mechanical allodynia is measured with monofilaments in a von Frey assay and increase in pain perception by the animal is recorded as a drop in the threshold. *P<0.0001 by two-way ANOVA.

NF-κB = NF-κB activation assay in LPS stimulated CellSensor NF-κB-bla THP-1 reporter cells; assay type: cell-based, human; settings: 5 h and 16 h time points
Description: In the presence of lactamase, CCF4 was enzymatically cleaved and excitation at 409 nm produced a blue fluorescence signal (at 450 nm), The CellSensor® NF-κB-bla THP-1 cells were dispersed in 96-well plates (5×10^4 cells/200 μL/well) and incubated for 4 h, Then the cells were treated with 5 μM of each compound and 10 ng/ml of LPS for 5 or 12 h in 5% CO2 at 37° C. After incubation, the ß-lactamase substrate mixture (prepared according to the manufacturer's protocol) was added to each well. Plates were incubated at room temperature in the dark for 2 h. Fluorescence was measured on a Tecan Infinite M200 plate reader (Tecan, Mannedorf, Switzerland) at an excitation wavelength of 405 nm and emission wavelengths of 465 and 535 nm. Emission ratios are calculated by dividing values from emission wavelength of 465 nm by those from emission wavelength of 535 nm, The response ratio was calculated as follows [(emission ratio of a test well)/average emission ratio of wells with vehicle (0.5% DMSO)] and values were normalized to the LPS control treated wells [response ratio of the compound/response ratio of LPS].
Using LPS as a primary inflammatory stimulus the effect of these compounds on NF-κB activity was evaluated at two time points to profile the kinetics of their suppression.

[8] = WT mice, 750 nmoles IP BID for 6 days

Compound	TNF release when stimulated with IL-1ß (THP-1 cells [1]; THP-1 cells)	mIP-10 production induced by TLR4 (LPS), TLR7 (1V270) and STING (DMXAA) ligands [7]	mTNF-a production induced by TLR4 (LPS), TLR7 (1V270) and STING (DMXAA) ligands [7]	IFNβ induced by DMXAA (mBMDCs)	Cellular viability (% Viability compared to Veh) (THP-1 cells [5])	further results
CCCCNc1ncnc2c1cnn2-c1ccc(C)cc1C [Compound 1-2]	–	–	–	–	–	IC50 (THP-1 cells [1]; THP-1 cells, IL-1ß 2 ng/ml, overnight (FIG. 3D)): 2770 nM; IC50 (THP-1 cells [2]): 4130 nM; CXCL8 production. Relative to LPS (purchased) (THP-1 cells [3]): 70.1%; IC50 (THP-1 cells [4]): 1770 nM; % Cellular Viability (Purchased) (THP-1 cells [5]; purchased compound): 100.1%; Effect of addition of DEX on CXCL8 production (THP-1 cells [6]; TNF 2 ng/ml stimulated THP-1 cells, serially diluted compound plus 100 nM DEX (FIGS. 4A-C)): only effective at the lower doses; Synergy with DEX, isobologram of potency ratios for CXCL8 (THP-1 cells [6]; TNF stimulated THP-1 cells, compound and DEX titrated at same molarity (FIG. 5D)): modestly synergistic
CCOc1ccc(NC(=O)c2ccc([N+](=O)[O-])o2)cc1 [Compound 4]	Dose-dependent inhibition	inhibited	inhibited	Dose-dependent inhibition	approximately 100%	–
O=C(Nc1cccc(C(F)(F)F)c1)c1ccc([N+](=O)[O-])o1 [Compound 5]	Dose-dependent inhibition	inhibited	inhibited	Dose-dependent inhibition	approximately 100%	Cytokine inhibition IC50, human cell studies (THP-1 cells [1]; THP-1 cells stimulated with IL-1β, TNF-a (FIG. 9E)): nanomolar (nM) range; Cytokine inhibition IC50, mouse cell studies (mBMDCs; mBMDCs stimulated with DMXAA, IFNβ (FIG. 9F)): nanomolar (nM) range; Pain or swelling in Tmem173-/- mice (mice; Tmem173-/- mice, 750 nmol IP BID): no statistically significant effect; Acute inflammation in the ankle (ankle thickness) (mice; [8]): modest effect; Mechanical allodynia (von Frey filaments) (mice; [8]): significantly reduced
O=C(Nc1cc([N+](=O)[O-])ccc1Cl)c1ccc([N+](=O)[O-])o1 [Compound 6]	Dose-dependent inhibition	inhibited	inhibited	Dose-dependent inhibition	approximately 100%	–
C[C@@H]1C[C@H]2[C@@H]3CCC4=CC(=O)C=C[C@]4(C)[C@@]3(F)[C@@H](O)C[C@]2(C)[C@@]1(O)C(=O)CO [DEX, dexamethasone, reference compound]	–	–	–	–	–	IC50 (THP-1 cells [6]; Homo sapiens, TNF stimulated THP-1 cells, single agents (FIG. 5A), read-out: IC50 for TNF stimulated CXCL8 release (titration with DEX)): 300 nM
NC(=O)Nc1sc(-c2ccc(F)cc2)cc1C(N)=O [UTC, 5-(4-fluorophenyl)-2-ureidothiophene-3 carboxylic acid amide]	–	–	–	–	–	Inhibition of NF-κB activity (NF-κB): inhibited NF-κB activity at both time points
polymyxin B	–	–	–	–	–	Inhibition of NF-κB activity (NF-κB): suppressed NF-κB activity at both timepoints
